# Laboratory results taken from patent publication US20130310352A1, “DEXAMETHASONE COMBINATION THERAPY” (priority 2010, published 2013).
# Tested on: MM cell lines ARP1, MM.1S and MM.1R
# Test: Apoptosis in coculture with BMSCs
# Type: cell-based, human
# Details: 10 μM compound A, 24 hours, BMSC coculture
# Description: For this purpose, BMSCs isolated from MM patient were cocultured with MM cell lines ARP1, MM.1S and MM.1R. The cells were treated with or without 10 μM of compound A for 24 hours. As a positive control, MM.1S cells were cocultured with or without BMSC and treated with or without 40 μg/ml of dexamethasone for 24 hours. After treatment, the MM cells were identified as CD138+ cells by APC-CD138 staining.
# MM cell lines ARP1, MM.1S and MM.1R were cultured with 10 μM compound A for 3 days. rhIL-6 were added to final concentration of 5 ng/ml. As a positive control, MM.1S cells were treated with 40 μg/ml dexamethasone in the presence of 5 ng/ml of rhIL6 for the same time. Cells apoptosis rate was measured by annexin V staining. (B). Same MM cells were co-cultured with or without MM BMSC, and treated with 10 μM of compound A for 1 day. As a positive control, MM.1S cells were cocultured with or without BMSC and treated with 40 μg/ml dexamethasone for 1 day. CD138+ MM cells apoptosis rate was measured by Annexin V staining.
smiles,measurement,value
"Nc1cc(C(F)(F)F)c(-c2cc(N3CCOCC3)nc(N3CCOCC3)n2)cn1 [compound A, 5-(2,6-di-morpholin-4-yl-pyrimidin-4-yl)-4-trifluoromethyl-pyridin-2-ylamine]",effect of BMSCs on compound A induced MM cell apoptosis,did not protect
